{"source": "patent US20100062961A1", "about": "“Good Foaming Creamy or Paste-Like Cleansers Comprising Floor Levels of Long Chain Lipids or Lipid Mimics” (CONOPCO, INC., D/B/A UNILEVER, priority 2008, published 2010)", "key": {"[1]": {"assay": "Solubility of lipid in 5% surfactant solution, Method A visual observation", "assay_type": "physicochemical", "source_text": "(room temperature). The solubility is a function of pH, and increases with increasing pH, but the long chain fatty acids and other lipids (e.g., cholesterol and related sterols and ceramides) and lipid mimics (e.g., saturated long chain alcohols) still have limited solubility in the surfactant solutions, especially in the pH range of interest, pH less than or equal to 8. Solubility can be determined by visual observation of a series of solutions that were allowed to equilibrate at room temperature for approximately 48 hours. We also determined solubility by absorbance of light at a particular wavelength, where we have used a UV-Vis 96 spectrophotometer well plate reader (Spectra Max, 340 pc Model) with the wavelength set at 500 nm. […] The surfactant solution pH was adjusted to the desired range (usually 6 to 6.6) prior to addition of the lipid. […] In some cases, we have determined solubility by analyzing a dilution series of samples using a UV-Vis 96 spectrophotometer (Spectra Max, Model 340pc). The samples of the dilution series were pipeted into a well plate reader and inserted into the spectrophotometer, which measured absorbance at a wavelength of 500 nm. The solubility limit was determined by extrapolating the absorbance readings to the baseline. These values are reported in Table 2 as determined by Method B."}, "[2]": {"conditions": "typical anionic surfactant; cited from earlier work"}, "[3]": {"assay": "Solubility of lipid in 5% surfactant solution, Method B absorbance at 500 nm", "assay_type": "physicochemical", "conditions": "5% Miracare SLB, pH 6.0, Method B", "excerpt": "Stock solutions of lipid in 5% surfactant solution were mixed in a beaker with an overhead mixer at a temperature above the melting point of the lipid for about an hour. The surfactant solution pH was adjusted to the desired range (usually 6 to 6.6) prior to addition of the lipid. Generally, the lipid concentrations in the stock solutions were at 1% to 2% by weight of solution. The stock solutions were allowed to cool to room temperature. These stock solutions were well above the solubility limit of the lipid as evidenced by considerable cloudiness. The stock solution was gently stirred to achieve a uniform suspension of the lipid insoluble matter, and then added to several small vials (approximately 20 ml capacity) in predetermined amounts. […] In some cases, we have determined solubility by analyzing a dilution series of samples using a UV-Vis 96 spectrophotometer (Spectra Max, Model 340pc). The samples of the dilution series were pipeted into a well plate reader and inserted into the spectrophotometer, which measured absorbance at a wavelength of 500 nm. The solubility limit was determined by extrapolating the absorbance readings to the baseline."}, "[4]": {"assay": "Krafft point: lowest temperature at which cloudiness is observed in a 1% by weight surfactant solution", "assay_type": "physicochemical", "conditions": "1% by weight solution; upper bound, solution observed clear at stated temperature", "source_text": "The Krafft temperature is the minimum temperature at which surfactants form micelles. […] Below the Krafft temperature, there is no value for the critical micelle concentration (CMC), i.e., surfactant micelles will not form. A portion of the surfactant exists as a precipitate and the mixture of surfactant and water will appear cloudy or have an obvious phase settled at the bottom of a sample below the Krafft temperature. We consider only surfactants or mixtures of surfactants with Krafft temperatures at or below 20° C., so it suffices to verify that the surfactant mixtures of interest are completely soluble at 20° C. We verified this for the commercial surfactant solutions of interest. In particular, we have verified that the Krafft temperature for mixtures of sodium lauryl-1-ether sulfate and cocoamidopropyl betaine, and for mixtures of the commercial blend known as Miracare SLB lies below 20° C.\nOur operational definition of Krafft point here is the lowest temperature at which cloudiness is observed in a 1% by weight solution of surfactant. The table indicates the upper bound on Krafft point, i.e., solution observed to be clear at stated temperature."}}, "data": [{"compound": "CCCCCCCCCCCC(=O)O", "note": "[Lauric acid]", "values": [{"measurement": "solubility", "setting": "[1]; in 5 wt. % SLES1EO/CAPBet solution", "result": "approximately 0.08 wt. %"}, {"measurement": "solubility as share of the surfactant weight", "setting": "[1]; in a 5 wt. % surfactant solution", "result": "approximately 16%"}]}, {"compound": "CCCCCCCCCCCCOS(=O)(=O)[O-].[Na+]", "note": "[sodium dodecyl sulfate]", "values": [{"measurement": "Krafft temperature", "setting": "[2]", "result": 18.4, "unit": "°C"}]}, {"compound": "CC(C)CCC[C@@H](C)[C@H]1CC[C@H]2[C@@H]3CC=C4C[C@@H](O)CC[C@]4(C)[C@H]3CC[C@]12C", "note": "[Cholesterol]", "values": [{"measurement": "Solubility Limit", "setting": "[3]", "result": "~5 × 10^−3 weight fraction of total solution"}]}, {"compound": "Sodium tridecethsulfate [Trideceth Sulfate (TDS)]", "values": [{"measurement": "Krafft T", "setting": "[4]", "result": "<15", "unit": "°C"}]}]}
